What was measured:
SRPK2 = biological target: T1, SRPK2 (Mus musculus, UniProt O54781); assay: SRPK2 immunoprecipitation kinase assay from inhibitor-treated mESCs with RNF12 as substrate; type: cell-based; settings: mESCs pre-treated with 10 μM for 4 h
T1 construct: endogenous in cells; host or cells: mESCs (CCE line)
Description: (§1) SRSF phosphorylation, SRPK1, SRPK2, and ERK1/2 levels were determined by immunoblotting. Expected positions of SRSFs that are not detected are shown in gray. Quantification of SRSF phosphorylation (Right). Data represented as mean ± SEM (n = 4). […] Neuro 2a is a control for exon 16b exclusion in differentiated cells (Bottom). Data represented as mean ± SEM (n = 3). […] Exon 16 inclusion: (^∗∗∗∗) p < 0.0001, Exon 16b inclusion: (^∗) p = 0.0164, p = 0.0485, and p = 0.0489 (left to right). Ratio exon 16b/16: (^∗∗∗∗) p < 0.0001, (^∗∗∗) p = 0.0003. (C) SRPK substrates predicted using ScanProsite and grouped according to UniProt functions. (D) RNF12 phosphorylation sites detected by mass-spectrometry. LZL, leucine-zipper like; NLS, nuclear localization signal; NES, nuclear export signal; RING, RING E3 ubiquitin ligase catalytic domain. (E) CMGC family kinase copy numbers in mESCs determined by quantitative proteomics and represented using Kinoviewer. (F) CMGC kinase (200 mU) phosphorylation of the RNF12 SR-motif in vitro was determined by immunoblotting for RNF12 phospho-Ser214 and total RNF12. […] Normalized RNF12 Ser214 phosphorylation is shown below. Data represented as mean ± SEM (n = 3). […] RNF12 SR-motif phosphorylation was analyzed by immunoblotting for RNF12 phospho-Ser214 and RNF12. SRPK1 and SRPK2 levels are shown as a loading control, Related to Figure S1; Tables S1 and S2. […]

SRPK1 = biological target: T2, SRPK1 (Mus musculus, UniProt O70551); assay: SRPK1 immunoprecipitation kinase assay from inhibitor-treated mESCs with RNF12 as substrate; type: cell-based; settings: mESCs pre-treated with 10 μM for 4 h
T2 construct: endogenous in cells; host or cells: mESCs (CCE line)
T2 sequence (O70551 whole entry): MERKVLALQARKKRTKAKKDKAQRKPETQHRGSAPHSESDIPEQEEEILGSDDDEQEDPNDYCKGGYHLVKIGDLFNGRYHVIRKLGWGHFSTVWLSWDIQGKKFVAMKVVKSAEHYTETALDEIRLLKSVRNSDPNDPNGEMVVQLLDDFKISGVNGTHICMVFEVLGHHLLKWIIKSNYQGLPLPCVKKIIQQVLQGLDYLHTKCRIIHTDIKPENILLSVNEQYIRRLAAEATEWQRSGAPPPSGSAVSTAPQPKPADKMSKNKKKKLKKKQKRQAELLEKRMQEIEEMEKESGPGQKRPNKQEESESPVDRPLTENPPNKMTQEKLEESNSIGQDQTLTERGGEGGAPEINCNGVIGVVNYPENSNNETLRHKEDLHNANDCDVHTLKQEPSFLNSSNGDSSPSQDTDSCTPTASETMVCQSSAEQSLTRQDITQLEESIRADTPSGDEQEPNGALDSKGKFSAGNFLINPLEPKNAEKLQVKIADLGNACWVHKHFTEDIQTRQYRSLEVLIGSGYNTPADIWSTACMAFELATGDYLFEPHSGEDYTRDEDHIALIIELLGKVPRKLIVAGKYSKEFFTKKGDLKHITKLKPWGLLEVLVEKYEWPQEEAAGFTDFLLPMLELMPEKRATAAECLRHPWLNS
Description: as §1

[1] = biological target: 50 representative kinases; assay: Kinase inhibitor profiling, in vitro kinase assays for 50 representative kinases; type: biochemical; settings: 1 μM, SRPK1 compared with 49 other kinases
Description: Kinase activity towards specific peptides was assessed in comparison to DMSO control. Full details are available at http://www.kinase-screen.mrc.ac.uk/services/express-screen.
Supplemental Figure Legends
Figure S1. Differential inhibitor sensitivities and expression profiles of SRPK kinases (Related to Figure 1). (A) Wild-type (WT) mESCs were analysed for protein copy number by absolute quantitative proteomics. SRPK1, SRPK2 and SRPK3 protein copy numbers are shown.
Data are represented as mean ± S.E.M. (n=3). Unpaired Student’s t test, two-sided, confidence level 95%. (****) P<0.0001. ND = not detected. (B) Inhibition of RNF12 phosphorylation in vitro by SRPK1 and SRPK2 in the presence of varying concentrations of the indicated SRPK inhibitors was determined by immunoblotting for RNF12 phospho-Ser214 (Left). RNF12 levels are shown as a control. Immunoblots were quantified to generate SRPK inhibitor dose-response curves for inhibition of RNF12 phosphorylation by SRPK1 and SRPK2 in vitro (Right). (C) WT, Srpk1-/- and Srpk2-/- mESCs were cultured and SRPK protein expression was analysed via immunoblotting. […]
SR-motif phosphorylation of HA-immunoprecipitated RNF12 analysed by phos-tag immunoblotting. […]
(DYRK1A inhibitor), WEHI-345 (RIPK2 inhibitor), IRAK-4-Inhibitor-a (IRAK4 inhibitor) and GSK-461364 (PLK1/2 inhibitor) for 4 h, and RNF12 phosphorylation analysed via phos-tag immunoblotting. […]

T1 sequence (O54781 whole entry): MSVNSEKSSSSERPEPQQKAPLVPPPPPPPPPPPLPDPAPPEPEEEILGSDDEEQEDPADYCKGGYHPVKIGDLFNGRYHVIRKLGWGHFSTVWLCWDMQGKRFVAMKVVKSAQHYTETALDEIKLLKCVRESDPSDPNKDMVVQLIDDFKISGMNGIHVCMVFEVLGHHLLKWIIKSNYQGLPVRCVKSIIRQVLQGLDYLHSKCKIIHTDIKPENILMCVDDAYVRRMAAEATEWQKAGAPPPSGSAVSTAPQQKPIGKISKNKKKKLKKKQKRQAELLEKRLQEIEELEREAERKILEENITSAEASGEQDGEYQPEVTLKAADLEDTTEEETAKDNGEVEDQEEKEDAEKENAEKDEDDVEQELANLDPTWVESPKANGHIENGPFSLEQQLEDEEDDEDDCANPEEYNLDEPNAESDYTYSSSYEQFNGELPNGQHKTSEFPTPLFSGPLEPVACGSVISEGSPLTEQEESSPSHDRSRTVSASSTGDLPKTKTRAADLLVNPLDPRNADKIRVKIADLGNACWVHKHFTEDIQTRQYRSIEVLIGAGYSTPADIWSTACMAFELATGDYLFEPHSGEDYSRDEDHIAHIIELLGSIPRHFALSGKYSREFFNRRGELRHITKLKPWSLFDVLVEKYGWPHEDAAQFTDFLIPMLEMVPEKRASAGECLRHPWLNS

Structure (SMILES): CCc1cc2c(cc1-c1cccc(S(=O)(=O)F)c1)C(C)(C)c1[nH]c3cc(C#N)ccc3c1C2=O [SRPKIN-1]
- inhibition of SRPK2 in vivo (ability of immunoprecipitates to phosphorylate RNF12) (SRPK2): potently inhibited
- inhibition of SRPK1 in vivo (ability of immunoprecipitates to phosphorylate RNF12) (SRPK1): potently inhibited
- kinase inhibition specificity [1]: highly specific
